Results taken from paper PMC6348443 (Journal of Medicinal Chemistry, 2018).
Entries after “also recorded” stand apart in the source; their conditions may differ. Structures can show the parent of a compound that is named as a salt. Where two headings read alike, the source gives them in different places.

What was measured:
MOR [1] = molecular target: T1, MOR (Homo sapiens, UniProt P35372); assay: [35S]GTPγS binding assay, CHO-hMOR membranes; type: biochemical; details: for Emax: relative to reference full agonist DAMGO, read-out: MOR % stim.
T1 construct: host or cells: CHO (CHO-hMOR)

KOR [2] = molecular target: T2, KOR (Homo sapiens, UniProt P41145); assay: [35S]GTPγS binding assay, CHO-hKOR membranes; type: biochemical; details: for Emax: relative to reference full agonist U69,593, read-out: KOR % stim.
T2 construct: host or cells: CHO (CHO-hKOR)

male CD1 mice [3] = assay: acetic acid-induced writhing assay after sc administration; type: in vivo, mouse; details: Mus musculus, 0.5 h, read-out: ED50 (95% CI), mice, sc, inhibition of writhing 30 min after drug administration
MOR [4] = molecular target: T1, MOR; assay: competition radioligand binding, CHO cell membranes expressing human MOR, [3H]DAMGO
Method: (§1) Membranes from CHO cells expressing human opioid receptors were prepared in 50 mM Tris-HCl buffer (pH 7.7) according to a previously described procedure.[64] Cells expressing human opioid receptors grown at confluence were removed from the culture plates by scraping, homogenized in 50 mM Tris buffer (pH 7.7), using a Polytron homogenizer, then centrifuged once and washed by an additional centrifugation at 27 000g for 15 min, at 4 °C. The final pellet was resuspended in Tris buffer and stored at −80 °C until use. Protein content of brain and cell membrane preparation homogenates was determined by the method of Bradford using bovine serum albumin as the standard.[65]
(§2) Rat brain membranes were incubated with either [^3H]DAMGO (1 nM, 45 min, 35 °C) or [^3H][Ile^5,6]deltorphin II (0.5 nM, 45 min, 35 °C) for labeling MOR or DOR receptors, respectively. Guinea-pig brain membranes were incubated with [^3H]U69,593 (1 nM, 30 min, 30 °C) for labeling KOR. Binding assays with CHO cell membranes were conducted at 25 °C for 60 min using [^3H]DAMGO (1 nM) or [^3H]diprenorphine (0.2 nM) for labeling MOR or DOR, respectively. Nonspecific binding was determined using 10 μM naloxone (rodent brain) or 1–10 μM of the unlabeled counterpart of each radioligand (CHO cells). Reactions were terminated by rapid filtration through Whatman glass fiber GF/C filters. Filters were washed three times with 5 mL of ice-cold 50 mM Tris-HCl buffer (pH 7.4) using a Brandel M24R cell harvester (Gaithersburg, MD). Radioactivity retained on the filters was counted by liquid scintillation counting using a Beckman Coulter LS6500 (Beckman Coulter Inc., Fullerton, CA). All binding experiments were performed in duplicate and repeated at least three times.
(§3) aDetermined in competition radioligand binding assays using CHO cell membranes expressing
(§4) human MOR and DOR. Values represent the mean ± SEM of three independent experiments each

DOR [5] = molecular target: T3, DOR (Homo sapiens, UniProt P41143); assay: competition radioligand binding, CHO cell membranes expressing human DOR, [3H]diprenorphine
T3 construct: host or cells: CHO (CHO-hDOR)
Method: as §1, §2, §3, §4

[6] = system: peripheral opioid receptors; assay: antagonism by naloxone methiodide in the acetic acid-induced writhing assay; type: in vivo, mouse; details: sc co-administration with naloxone methiodide 1 mg/kg; agonist 50 or 200 μg/kg sc; 30 min
Description: To determine whether targeted 6-amino acid and 6-dipeptide analogues inhibit writhing behavior in mice through peripheral opioid receptors activation, we used naloxone methiodide.[27]
Values are shown as mean of writhes ± SEM (n = 6–7 mice per group). ***P < 0.001 vs control group; ^#P < 0.05, ^##P < 0.01 and ^###P < 0.001 vs agonist treated group, ANOVA with Tukey’s post hoc test.
Writhing was induced in male CD1 mice by ip injection of a 0.6% acetic acid aqueous solution as described previously.[48],[62] Groups of mice were administered sc different doses of test compound or saline (control), and 5 min prior to testing (25 min after drug or saline), each animal received an ip injection of acetic acid solution. Each mouse was placed in individual transparent Plexiglas chambers, and the number of writhes was counted during a 10 min observation period. […] For the antagonism study, naloxone methiodide was sc co-administered with the respective opioid agonist, and writhing was assessed as described above.

male CD1 mice [7] = details: sc; cited from earlier work
MOR [8] = details: systemic sc 2b, icv CTAP; cited from earlier work
mouse = system: mouse; design: method as in PMID 25721395; details: systemic ip administration; cited from earlier work
rats = system: rats; design: method as in PMID 16339394; details: given orally; cited from earlier work
MOR [9] = molecular target: T4, MOR (Rattus norvegicus, UniProt P33535); assay: competition radioligand binding, rat brain membranes, [3H]DAMGO; details: for Ki: rat brain membranes, read-out: opioid receptor binding Ki MOR
T4 construct: Membranes were prepared from Sprague-Dawley rat brains or guinea-pig brains according to the described procedures; tissue Labortierkunde und Laborgenetik, Medizinische Universität Wien; host or cells: Sprague-Dawley rat brain without cerebella

DOR [10] = molecular target: T5, DOR (Rattus norvegicus, UniProt P33533); assay: competition radioligand binding, rat brain membranes, [3H][Ile5,6]deltorphin II; details: for Ki: rat brain membranes, read-out: opioid receptor binding Ki DOR
T5 construct: Membranes were prepared from Sprague-Dawley rat brains or guinea-pig brains according to the described procedures; tissue Labortierkunde und Laborgenetik, Medizinische Universität Wien; host or cells: Sprague-Dawley rat brain without cerebella

KOR [11] = molecular target: T6, KOR (Cavia porcellus, UniProt P41144); assay: competition radioligand binding, guinea-pig brain membranes, [3H]U69,593; details: guinea-pig brain membranes; read-out: opioid receptor binding Ki KOR
T6 construct: Membranes were prepared from Sprague-Dawley rat brains or guinea-pig brains according to the described procedures; tissue Labortierkunde und Laborgenetik, Medizinische Universität Wien; host or cells: guinea-pig brain without cerebella

DOR [12] = molecular target: T3, DOR; assay: [35S]GTPγS binding assay, CHO-hDOR membranes; type: biochemical; details: for EC50: [35S]GTPγS, CHO human DOR membranes; for Emax: relative to reference full agonist DPDPE, read-out: DOR % stim.
[13] = [35S]GTPγS, CHO human MOR membranes, read-out: MOR EC50
[14] = [35S]GTPγS, CHO human KOR membranes, read-out: KOR EC50

SMILES	Emax (MOR [1])	Emax (KOR [2])	ED50 (male CD1 mice [3])	Ki (MOR [4])	Ki (DOR [5])	effect of naloxone methiodide on antinociceptive effect [6]	Ki (MOR [9])	Ki (DOR [10])	Ki (KOR [11])	EC50 (MOR [1]; [13])	EC50 (DOR [12])	Emax (DOR [12])	EC50 (KOR [2]; [14])	also measured
CO[C@@]12CC[C@@H](NCC(=O)O)[C@@H]3Oc4c(O)ccc5c4[C@@]31CCN(C)[C@@H]2C5 [Compound 2b, 2-[(4,5α-Epoxy-3-Hydroxy-14β-Methoxy-17-Methylmorphinan-6β-yl)Amino]Acetic Acid]	98 ± 9%	82 ± 9%	0.0275 mg/kg	0.9 ± 0.14 nM	10.1 ± 2.7 nM	reversed; also recorded: antagonized	–	–	–	–	–	–	–	EC50 (MOR [1]): 3.78 ± 0.73 nM; EC50 (KOR [2]): 361 ± 154 nM; more potent than morphine in inhibiting the writhing response (male CD1 mice [7]): 24 times; effect of intracerebroventricular CTAP on antinociceptive effects (MOR [8]): did not reverse; effect of naloxone methiodide on antinociceptive effects (mouse): completely antagonized; effect of sc naloxone methiodide on antihyperalgesic effects (rats): reversed
CO[C@@]12CC[C@@H](N[C@@H](CCCCN)C(=O)O)[C@@H]3Oc4c(O)ccc5c4[C@@]31CCN(C)[C@@H]2C5 [Compound 8b, (2S)-6-Amino-2-[(4,5α-epoxy-3-hydroxy-14β-methoxy-17-methylmorphinan-6β-yl)amino]hexanoic Acid Trihydrochloride]	90 ± 7%	62 ± 7%	–	–	–	antagonized	0.53 ± 0.09 nM	3.34 ± 0.46 nM	33.7 ± 4.1 nM	6.85 ± 1.39 nM	45.1 ± 22.7 nM	93 ± 8%	525 ± 24 nM	–
CO[C@@]12CC[C@H](N[C@H](C(=O)O)C3CCCCC3)[C@@H]3Oc4c(O)ccc5c4[C@@]31CCN(C)[C@@H]2C5 [Compound 18a, (2S)-2-[(4,5α-Epoxy-3-hydroxy-14β-methoxy-17-methyl-morphinan-6α-yl)-amino]-2-cyclohexylacetic Acid Dihydrochloride]	86 ± 8%	52 ± 6%	0.0206 mg/kg	–	–	reversed	1.23 ± 0.2 nM	14.3 ± 0.09 nM	177 ± 30 nM	2.88 ± 1.21 nM	20.5 ± 8 nM	101 ± 1%	250 ± 80 nM	Ki ratio MOR/DOR/KOR (MOR [9]; from Ki in rat (MOR, DOR) and guinea-pig (KOR) brain membranes): 1/12/144; decreased DOR affinity vs 6β analogue (DOR [10]; rat brain, 18a vs 18b, 19a vs 19b): 11 times
CO[C@@]12CC[C@@H](N[C@H](C(=O)O)C3CCCCC3)[C@@H]3Oc4c(O)ccc5c4[C@@]31CCN(C)[C@@H]2C5 [Compound 18b, (2S)-2-[(4,5α-Epoxy-3-hydroxy-14β-methoxy-17-methyl-morphinan-6β-yl)-amino]-2-cyclohexylacetic Acid Dihydrochloride]	86 ± 9%	59 ± 7%	–	–	–	antagonized	1.66 ± 1.04 nM	1.3 ± 0.16 nM	118 ± 23 nM	5.33 ± 0.89 nM	3.57 ± 1.63 nM	96 ± 10%	282 ± 58 nM	–
CC[C@H](N[C@@H]1CC[C@@]2(OC)[C@H]3Cc4ccc(O)c5c4[C@@]2(CCN3C)[C@H]1O5)C(=O)O [Compound 19b, (2S)-2-[(4,5α-Epoxy-3-hydroxy-14β-methoxy-17-methylmorphinan-6β-yl)amino]-2-ethylacetic Acid Dihydrochloride]	~80%	72 ± 0.5%	–	2.1 ± 0.33 nM	1.99 ± 0.84 nM	antagonized	1.83 ± 0.04 nM	1.3 ± 0.24 nM	201 ± 10 nM	5.47 ± 1.18 nM	2.22 ± 1.64 nM	100 ± 3%	572 ± 18 nM	increased agonist potency at DOR vs MOR (DOR [12]; [35S]GTPγS EC50): 2–4 times
